In ChEMBL document CHEMBL4507291 (2021):

Key:
[1] = target: Vasoactive intestinal polypeptide receptor 1 (Homo sapiens) (UniProt P32241); test: Inhibition of Vasoactive Intestinal Peptide VIP1 at 10 µM in the Eurofins-Panlabs radioligand binding assay (Eurofins_assay_287010); conditions: Compound concentration 10.0 uM
[2] = target: T1, Aurora kinase C (Homo sapiens) (UniProt Q9UQB9); test: AURKC (Aurora C) Kinase screen; conditions: Compound concentration 1.0 uM
T1 sequence (whole entry): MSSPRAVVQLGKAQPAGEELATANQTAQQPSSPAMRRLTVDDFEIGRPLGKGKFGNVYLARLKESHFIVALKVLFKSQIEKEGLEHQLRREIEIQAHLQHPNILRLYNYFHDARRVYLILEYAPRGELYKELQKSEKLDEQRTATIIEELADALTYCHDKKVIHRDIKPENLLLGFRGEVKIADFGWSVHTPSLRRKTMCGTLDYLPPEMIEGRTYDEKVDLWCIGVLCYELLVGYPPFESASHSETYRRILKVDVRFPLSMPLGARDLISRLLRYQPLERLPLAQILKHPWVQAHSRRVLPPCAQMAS

[3] = target: Calcium/calmodulin-dependent protein kinase type 1D (Homo sapiens) (UniProt Q8IU85); test: CAMK1D (CaMKI delta) Kinase screen; conditions: Compound concentration 1.0 uM
[4] = target: Casein kinase I isoform gamma-3 (Homo sapiens) (UniProt Q9Y6M4); test: CSNK1G3 (CK1 gamma 3) Kinase screen; conditions: Compound concentration 1.0 uM
[5] = target: T2, Myotonin-protein kinase (Homo sapiens) (UniProt Q09013); test: DMPK Kinase screen; conditions: Compound concentration 1.0 uM
T2 sequence (whole entry): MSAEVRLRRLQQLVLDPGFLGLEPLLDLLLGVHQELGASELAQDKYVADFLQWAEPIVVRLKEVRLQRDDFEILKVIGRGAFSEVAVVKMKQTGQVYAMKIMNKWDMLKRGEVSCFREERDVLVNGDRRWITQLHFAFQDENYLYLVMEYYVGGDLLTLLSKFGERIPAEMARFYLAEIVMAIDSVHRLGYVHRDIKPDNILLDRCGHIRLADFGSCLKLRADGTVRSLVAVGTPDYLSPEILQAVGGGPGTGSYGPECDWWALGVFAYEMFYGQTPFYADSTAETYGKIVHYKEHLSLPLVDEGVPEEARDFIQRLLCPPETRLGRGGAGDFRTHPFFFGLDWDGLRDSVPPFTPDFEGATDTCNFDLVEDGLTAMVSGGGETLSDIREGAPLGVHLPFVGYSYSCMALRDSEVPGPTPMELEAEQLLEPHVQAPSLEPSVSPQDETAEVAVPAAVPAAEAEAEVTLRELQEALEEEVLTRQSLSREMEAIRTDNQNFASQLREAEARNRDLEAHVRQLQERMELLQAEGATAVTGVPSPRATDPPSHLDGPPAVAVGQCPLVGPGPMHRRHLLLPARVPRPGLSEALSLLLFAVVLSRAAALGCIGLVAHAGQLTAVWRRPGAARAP

[6] = test system: Mast/stem cell growth factor receptor Kit (Homo sapiens), P10721 [V654A]; test: KIT V654A Kinase screen; conditions: Compound concentration 1.0 uM
[7] = test system: Dual specificity mitogen-activated protein kinase kinase 1 (Homo sapiens), Q02750 [S218D,S222D]; test: MAP2K1 (MEK1) S218D S222D Kinase screen; conditions: Compound concentration 1.0 uM
[8] = target: Mitogen-activated protein kinase 9 (Homo sapiens) (UniProt P45984); test: MAPK9 (JNK2) Kinase screen; conditions: Compound concentration 1.0 uM
[9] = target: Platelet-derived growth factor receptor alpha (Homo sapiens) (UniProt P16234); test: PDGFRA (PDGFR alpha) Kinase screen; conditions: Compound concentration 1.0 uM
[10] = target: T3, cGMP-dependent protein kinase 1 (Homo sapiens) (UniProt Q13976); test: PRKG1 Kinase screen; conditions: Compound concentration 1.0 uM
T3 sequence (whole entry): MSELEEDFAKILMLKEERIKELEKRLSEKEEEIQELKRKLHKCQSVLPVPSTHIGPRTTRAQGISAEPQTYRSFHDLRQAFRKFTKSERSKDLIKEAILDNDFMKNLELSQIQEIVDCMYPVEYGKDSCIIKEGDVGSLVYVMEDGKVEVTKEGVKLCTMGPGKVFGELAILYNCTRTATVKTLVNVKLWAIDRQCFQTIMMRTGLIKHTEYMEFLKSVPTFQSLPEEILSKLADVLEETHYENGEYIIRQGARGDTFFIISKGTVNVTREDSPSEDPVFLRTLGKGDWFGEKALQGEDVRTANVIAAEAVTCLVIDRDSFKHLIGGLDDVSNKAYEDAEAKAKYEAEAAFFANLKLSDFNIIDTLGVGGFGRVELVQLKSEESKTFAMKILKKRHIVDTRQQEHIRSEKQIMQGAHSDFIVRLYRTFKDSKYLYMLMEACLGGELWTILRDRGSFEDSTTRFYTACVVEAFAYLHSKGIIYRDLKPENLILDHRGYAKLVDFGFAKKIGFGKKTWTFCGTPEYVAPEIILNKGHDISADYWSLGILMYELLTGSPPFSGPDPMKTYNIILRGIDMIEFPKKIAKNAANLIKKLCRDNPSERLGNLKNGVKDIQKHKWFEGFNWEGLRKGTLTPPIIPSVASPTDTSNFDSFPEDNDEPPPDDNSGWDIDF

[11] = target: Serine/threonine-protein kinase 16 (Homo sapiens) (UniProt O75716); test: STK16 (PKL12) Kinase screen; conditions: Compound concentration 1.0 uM
[12] = target: T4, TGF-beta receptor type-1 (Homo sapiens) (UniProt P36897); test: TGFBR1 (ALK5) Kinase screen; conditions: Compound concentration 1.0 uM
T4 sequence (whole entry): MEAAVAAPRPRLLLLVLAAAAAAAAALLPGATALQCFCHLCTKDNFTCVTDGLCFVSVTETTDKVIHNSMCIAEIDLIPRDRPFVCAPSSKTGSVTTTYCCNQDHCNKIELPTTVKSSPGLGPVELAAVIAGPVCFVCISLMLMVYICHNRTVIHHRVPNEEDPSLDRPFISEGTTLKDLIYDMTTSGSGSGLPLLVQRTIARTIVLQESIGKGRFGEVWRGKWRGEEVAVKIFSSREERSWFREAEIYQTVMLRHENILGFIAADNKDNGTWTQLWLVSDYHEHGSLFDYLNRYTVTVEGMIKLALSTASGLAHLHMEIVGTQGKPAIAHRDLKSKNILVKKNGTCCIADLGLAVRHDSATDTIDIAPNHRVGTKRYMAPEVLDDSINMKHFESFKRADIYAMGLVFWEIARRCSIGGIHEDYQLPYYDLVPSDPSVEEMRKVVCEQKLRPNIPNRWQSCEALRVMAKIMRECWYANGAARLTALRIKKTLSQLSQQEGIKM

[13] = target: D(1A) dopamine receptor (Homo sapiens) (UniProt P21728); conditions: Compound concentration 10.0 uM
[14] = target: Endothelin receptor type B (Homo sapiens) (UniProt P24530); conditions: Compound concentration 10.0 uM
[15] = target: Muscarinic acetylcholine receptor M2 (Homo sapiens) (UniProt P08172); conditions: Compound concentration 10.0 uM

Measured: inhibition

Sequence of Calcium/calmodulin-dependent protein kinase type 1D (Homo sapiens) (Q8IU85 whole entry, looked up, canonical isoform): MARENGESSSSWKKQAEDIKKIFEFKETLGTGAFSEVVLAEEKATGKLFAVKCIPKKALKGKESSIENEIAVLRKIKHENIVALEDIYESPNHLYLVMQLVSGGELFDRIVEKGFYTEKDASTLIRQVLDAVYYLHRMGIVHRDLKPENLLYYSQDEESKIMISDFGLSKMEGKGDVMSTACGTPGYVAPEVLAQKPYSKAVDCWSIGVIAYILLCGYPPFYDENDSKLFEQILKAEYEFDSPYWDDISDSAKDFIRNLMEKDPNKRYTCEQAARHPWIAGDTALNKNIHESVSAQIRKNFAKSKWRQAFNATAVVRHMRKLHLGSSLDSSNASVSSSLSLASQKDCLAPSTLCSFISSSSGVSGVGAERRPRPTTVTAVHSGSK
Sequence of Serine/threonine-protein kinase 16 (Homo sapiens) (O75716 whole entry): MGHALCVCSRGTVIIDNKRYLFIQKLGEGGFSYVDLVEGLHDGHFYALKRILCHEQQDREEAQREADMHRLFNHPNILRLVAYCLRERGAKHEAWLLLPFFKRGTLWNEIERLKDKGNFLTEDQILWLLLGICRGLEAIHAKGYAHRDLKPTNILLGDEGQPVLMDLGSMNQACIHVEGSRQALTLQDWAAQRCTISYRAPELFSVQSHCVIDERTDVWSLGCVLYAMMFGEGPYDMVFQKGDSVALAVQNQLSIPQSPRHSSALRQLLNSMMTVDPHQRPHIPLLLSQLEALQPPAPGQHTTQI
Sequence of D(1A) dopamine receptor (Homo sapiens) (P21728 whole entry): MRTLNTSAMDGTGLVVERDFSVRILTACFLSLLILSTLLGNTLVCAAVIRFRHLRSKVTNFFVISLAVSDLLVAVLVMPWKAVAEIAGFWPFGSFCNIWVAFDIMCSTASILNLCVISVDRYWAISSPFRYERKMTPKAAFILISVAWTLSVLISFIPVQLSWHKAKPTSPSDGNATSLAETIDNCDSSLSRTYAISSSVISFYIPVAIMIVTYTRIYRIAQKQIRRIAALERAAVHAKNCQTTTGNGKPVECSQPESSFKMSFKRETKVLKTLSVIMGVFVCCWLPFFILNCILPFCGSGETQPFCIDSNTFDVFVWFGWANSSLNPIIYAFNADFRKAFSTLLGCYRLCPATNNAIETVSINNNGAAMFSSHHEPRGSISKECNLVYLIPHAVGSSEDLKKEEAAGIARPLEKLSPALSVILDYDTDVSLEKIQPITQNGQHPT
Sequence of Mitogen-activated protein kinase 9 (Homo sapiens) (P45984 whole entry, looked up): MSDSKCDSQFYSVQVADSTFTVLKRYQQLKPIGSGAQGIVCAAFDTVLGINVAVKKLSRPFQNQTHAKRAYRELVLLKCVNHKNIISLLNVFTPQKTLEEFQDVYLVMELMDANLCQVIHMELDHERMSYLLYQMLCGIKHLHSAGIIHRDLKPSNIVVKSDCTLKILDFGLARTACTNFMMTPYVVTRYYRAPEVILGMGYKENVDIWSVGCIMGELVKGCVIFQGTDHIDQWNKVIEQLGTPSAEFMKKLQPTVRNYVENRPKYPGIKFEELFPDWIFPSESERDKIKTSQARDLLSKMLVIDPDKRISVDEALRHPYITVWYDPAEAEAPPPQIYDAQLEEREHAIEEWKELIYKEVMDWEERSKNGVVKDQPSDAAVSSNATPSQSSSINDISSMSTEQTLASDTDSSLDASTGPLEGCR
Sequence of Mast/stem cell growth factor receptor Kit (Homo sapiens), P10721 [V654A] (P10721 whole entry V654A): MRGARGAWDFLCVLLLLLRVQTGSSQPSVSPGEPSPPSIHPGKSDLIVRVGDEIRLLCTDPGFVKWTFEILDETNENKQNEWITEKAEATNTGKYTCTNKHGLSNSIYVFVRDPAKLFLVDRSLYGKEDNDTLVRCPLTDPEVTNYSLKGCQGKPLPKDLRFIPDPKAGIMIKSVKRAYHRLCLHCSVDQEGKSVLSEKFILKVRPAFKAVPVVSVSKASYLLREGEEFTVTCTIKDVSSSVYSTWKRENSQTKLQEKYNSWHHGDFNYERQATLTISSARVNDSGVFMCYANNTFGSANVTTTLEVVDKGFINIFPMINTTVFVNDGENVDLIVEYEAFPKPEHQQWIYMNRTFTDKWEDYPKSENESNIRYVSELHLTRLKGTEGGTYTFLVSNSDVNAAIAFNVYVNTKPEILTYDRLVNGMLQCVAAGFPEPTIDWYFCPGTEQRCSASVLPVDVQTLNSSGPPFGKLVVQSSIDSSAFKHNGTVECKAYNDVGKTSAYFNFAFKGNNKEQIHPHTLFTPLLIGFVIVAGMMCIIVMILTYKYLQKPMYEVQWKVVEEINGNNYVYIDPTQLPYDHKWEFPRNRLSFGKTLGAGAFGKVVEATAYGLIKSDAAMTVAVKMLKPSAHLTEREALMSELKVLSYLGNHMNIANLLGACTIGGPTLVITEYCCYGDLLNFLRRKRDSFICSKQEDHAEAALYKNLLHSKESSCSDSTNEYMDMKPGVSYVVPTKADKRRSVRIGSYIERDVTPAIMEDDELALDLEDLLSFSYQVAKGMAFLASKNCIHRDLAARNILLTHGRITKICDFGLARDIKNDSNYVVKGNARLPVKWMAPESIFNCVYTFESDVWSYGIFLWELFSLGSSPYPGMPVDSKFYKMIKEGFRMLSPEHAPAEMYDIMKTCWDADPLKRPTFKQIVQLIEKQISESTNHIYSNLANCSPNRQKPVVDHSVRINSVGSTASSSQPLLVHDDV
Sequence of Endothelin receptor type B (Homo sapiens) (P24530 whole entry): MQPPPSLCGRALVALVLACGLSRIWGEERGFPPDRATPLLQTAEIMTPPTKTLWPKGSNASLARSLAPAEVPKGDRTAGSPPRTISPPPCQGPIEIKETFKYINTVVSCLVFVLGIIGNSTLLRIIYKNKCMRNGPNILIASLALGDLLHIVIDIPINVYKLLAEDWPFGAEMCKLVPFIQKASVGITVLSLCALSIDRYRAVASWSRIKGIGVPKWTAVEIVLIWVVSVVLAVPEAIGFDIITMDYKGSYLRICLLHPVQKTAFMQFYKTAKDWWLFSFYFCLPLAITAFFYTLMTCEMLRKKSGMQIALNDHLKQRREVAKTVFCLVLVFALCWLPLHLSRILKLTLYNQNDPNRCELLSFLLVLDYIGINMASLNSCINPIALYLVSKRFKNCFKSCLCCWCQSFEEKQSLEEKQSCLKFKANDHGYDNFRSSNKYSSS
Sequence of Casein kinase I isoform gamma-3 (Homo sapiens) (Q9Y6M4 whole entry, looked up, canonical isoform): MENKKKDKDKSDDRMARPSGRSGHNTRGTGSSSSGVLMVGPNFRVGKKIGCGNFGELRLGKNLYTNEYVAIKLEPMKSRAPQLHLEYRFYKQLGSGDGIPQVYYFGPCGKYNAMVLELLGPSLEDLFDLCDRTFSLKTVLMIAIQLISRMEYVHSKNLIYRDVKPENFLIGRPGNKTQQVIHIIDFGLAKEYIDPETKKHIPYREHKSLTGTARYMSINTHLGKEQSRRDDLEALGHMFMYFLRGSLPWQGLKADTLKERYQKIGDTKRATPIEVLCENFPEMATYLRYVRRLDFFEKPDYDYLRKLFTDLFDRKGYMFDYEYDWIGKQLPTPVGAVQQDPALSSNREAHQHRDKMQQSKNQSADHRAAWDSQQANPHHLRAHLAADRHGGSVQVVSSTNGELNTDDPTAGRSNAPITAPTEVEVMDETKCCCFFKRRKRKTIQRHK
Sequence of Dual specificity mitogen-activated protein kinase kinase 1 (Homo sapiens), Q02750 [S218D,S222D] (Q02750 whole entry S218D/S222D): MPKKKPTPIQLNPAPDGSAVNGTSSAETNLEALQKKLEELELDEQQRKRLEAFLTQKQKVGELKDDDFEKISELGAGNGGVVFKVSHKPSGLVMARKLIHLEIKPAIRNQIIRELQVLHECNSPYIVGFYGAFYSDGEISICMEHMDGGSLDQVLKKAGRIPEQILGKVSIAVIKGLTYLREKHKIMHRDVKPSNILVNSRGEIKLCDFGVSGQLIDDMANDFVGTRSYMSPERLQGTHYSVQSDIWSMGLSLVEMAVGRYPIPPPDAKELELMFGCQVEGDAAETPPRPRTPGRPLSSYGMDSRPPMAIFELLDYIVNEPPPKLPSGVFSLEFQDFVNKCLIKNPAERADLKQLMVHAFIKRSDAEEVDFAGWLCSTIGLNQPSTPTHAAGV
Sequence of Muscarinic acetylcholine receptor M2 (Homo sapiens) (P08172 whole entry): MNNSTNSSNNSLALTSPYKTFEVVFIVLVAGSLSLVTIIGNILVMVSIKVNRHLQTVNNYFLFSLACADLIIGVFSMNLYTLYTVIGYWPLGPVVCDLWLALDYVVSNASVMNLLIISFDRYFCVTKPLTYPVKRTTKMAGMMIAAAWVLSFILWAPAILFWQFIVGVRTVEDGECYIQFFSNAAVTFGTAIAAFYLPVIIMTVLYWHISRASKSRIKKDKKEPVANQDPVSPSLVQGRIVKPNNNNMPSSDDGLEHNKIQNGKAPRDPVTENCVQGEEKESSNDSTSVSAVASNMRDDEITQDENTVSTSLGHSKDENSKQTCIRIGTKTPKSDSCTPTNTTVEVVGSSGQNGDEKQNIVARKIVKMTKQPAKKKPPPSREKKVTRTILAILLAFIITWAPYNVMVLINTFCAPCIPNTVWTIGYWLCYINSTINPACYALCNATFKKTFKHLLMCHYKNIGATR
Sequence of Vasoactive intestinal polypeptide receptor 1 (Homo sapiens) (P32241 whole entry): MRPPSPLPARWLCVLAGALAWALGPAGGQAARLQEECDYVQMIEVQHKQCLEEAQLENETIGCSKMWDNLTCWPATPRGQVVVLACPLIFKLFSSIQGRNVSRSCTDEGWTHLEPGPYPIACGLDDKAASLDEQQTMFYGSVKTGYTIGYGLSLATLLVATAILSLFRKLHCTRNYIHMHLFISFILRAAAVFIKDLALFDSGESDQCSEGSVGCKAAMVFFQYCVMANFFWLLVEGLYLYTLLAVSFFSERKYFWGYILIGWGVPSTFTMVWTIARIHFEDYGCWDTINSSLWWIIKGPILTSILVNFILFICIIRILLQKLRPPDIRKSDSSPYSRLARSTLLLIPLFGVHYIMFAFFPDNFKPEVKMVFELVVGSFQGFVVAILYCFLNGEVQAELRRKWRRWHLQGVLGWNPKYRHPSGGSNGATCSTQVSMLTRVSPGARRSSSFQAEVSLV

C[C@@H]1CN(c2cc(-c3n[nH]c4ccc(OC5(C)CC5)cc34)ncn2)C[C@H](C)O1 [MLi-2]
inactive: [1] 3% | [2] 1.85% | [3] 17.4% | [4] 2.15% | [5] 5.71% | [6] 1.06% | [7] 6.92% | [8] 19.7% | [9] 0.395% | [10] 0.194% | [11] 2.58% | [12] 0.904% | [13] 12% | [14] -1%

C[C@@H]1CN(c2cc(-c3nn(C)c4ccc(OC5(C)CC5)cc34)ncn2)C[C@H](C)O1 [MLi-2-NC]
inactive: [15] 21%
